Measured values taken from patent US10131652B2, “Pyrimidinyloxy benzene derivatives as herbicides” (E. I. DU PONT DE NEMOURS AND COMPANY, priority 2014, dated 2018).
Where two headings read alike, the source gives them in different places.

How the values were obtained:
Assay in all cases: Test D pre-/postemergence plant response
Assay type in all cases: in vivo
[1] = tested on: barnyardgrass (Echinochloa crus-galli); details: Echinochloa crus-galli; for pest or weed control at 16 g/ha: 16 g ai/ha; for pest or weed control at 31 g/ha: 31 g ai/ha; for pest or weed control at 62 g/ha: 62 g ai/ha; for pest or weed control at 125 g/ha: 125 g ai/ha
Outline: (§1)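 Visual injury scoring (0–100) at 13 to 15 days in greenhouse. Preemergence sprays on seeded loam/sand; postemergence sprays on 1–4 leaf plants.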

[2] = tested on: pigweed (Amaranthus retroflexus); details: Amaranthus retroflexus; for pest or weed control at 31 g/ha: 31 g ai/ha; for pest or weed control at 62 g/ha: 62 g ai/ha; for pest or weed control at 125 g/ha: 125 g ai/ha
Outline: as §1

[3] = tested on: galium (catchweed bedstraw, Galium aparine); details: Galium; for pest or weed control at 31 g/ha: 31 g ai/ha; for pest or weed control at 62 g/ha: 62 g ai/ha; for pest or weed control at 125 g/ha: 125 g ai/ha
Outline: as §1

[4] = tested on: blackgrass (Alopecurus myosuroides); details: Alopecurus myosuroides; for pest or weed control at 16 g/ha: 16 g ai/ha; for pest or weed control at 31 g/ha: 31 g ai/ha; for pest or weed control at 62 g/ha: 62 g ai/ha; for pest or weed control at 125 g/ha: 125 g ai/ha
Outline: as §1

[5] = tested on: yellow nutsedge (Cyperus esculentus); details: Cyperus; for pest or weed control at 31 g/ha: 31 g ai/ha; for pest or weed control at 62 g/ha: 62 g ai/ha; for pest or weed control at 125 g/ha: 125 g ai/ha
Outline: as §1

[6] = tested on: lambsquarters (Chenopodium album); details: Chenopodium album; for pest or weed control at 31 g/ha: 31 g ai/ha; for pest or weed control at 62 g/ha: 62 g ai/ha; for pest or weed control at 125 g/ha: 125 g ai/ha
Outline: as §1

[7] = tested on: waterhemp (common waterhemp, Amaranthus rudis); details: Amaranthus tuberculatus; for pest or weed control at 31 g/ha: 31 g ai/ha; for pest or weed control at 62 g/ha: 62 g ai/ha; for pest or weed control at 125 g/ha: 125 g ai/ha
Outline: as §1

[8] = tested on: giant foxtail (Setaria faberii); details: Setaria faberi; for pest or weed control at 16 g/ha: 16 g ai/ha; for pest or weed control at 31 g/ha: 31 g ai/ha; for pest or weed control at 62 g/ha: 62 g ai/ha; for pest or weed control at 125 g/ha: 125 g ai/ha
Outline: as §1

[9] = tested on: morningglory (Ipomoea coccinea); details: Ipomoea; for pest or weed control at 125 g/ha: 125 g ai/ha
Outline: as §1

[10] = post-emergence, Postemergence, scale 0 to 100 (0 no effect, 100 complete control), read-out: Barnyardgrass plant response rating
[11] = post-emergence, Postemergence, scale 0 to 100, 0 no effect, 100 complete control, read-out: Plant response rating, Barnyardgrass
[12] = pre-emergence, Preemergence, scale 0 to 100 (0 no effect, 100 complete control), read-out: Plant response rating, Barnyardgrass
[13] = post-emergence, Postemergence, scale 0 to 100, 0 no effect, 100 complete control, read-out: Plant response rating, Pigweed
[14] = pre-emergence, Preemergence, scale 0 to 100 (0 no effect, 100 complete control), read-out: Plant response rating, Pigweed
[15] = post-emergence, Postemergence, scale 0 to 100, 0 no effect, 100 complete control, read-out: Plant response rating, Galium
[16] = pre-emergence, Preemergence, scale 0 to 100 (0 no effect, 100 complete control), read-out: Plant response rating, Galium
[17] = post-emergence, Postemergence, scale 0 to 100 (0 no effect, 100 complete control), read-out: Blackgrass plant response rating
[18] = post-emergence, Postemergence, scale 0 to 100, 0 no effect, 100 complete control, read-out: Plant response rating, Blackgrass
[19] = pre-emergence, Preemergence, scale 0 to 100 (0 no effect, 100 complete control), read-out: Plant response rating, Blackgrass
[20] = post-emergence, Postemergence, scale 0 to 100, 0 no effect, 100 complete control, read-out: Plant response rating, Nutsedge, Yellow
[21] = pre-emergence, Preemergence, scale 0 to 100 (0 no effect, 100 complete control), read-out: Plant response rating, Nutsedge, Yellow
[22] = post-emergence, Postemergence, scale 0 to 100, 0 no effect, 100 complete control, read-out: Plant response rating, Lambsquarters
[23] = pre-emergence, Preemergence, scale 0 to 100 (0 no effect, 100 complete control), read-out: Plant response rating, Lambsquarters
[24] = post-emergence, Postemergence, scale 0 to 100, 0 no effect, 100 complete control, read-out: Plant response rating, Waterhemp
[25] = pre-emergence, Preemergence, scale 0 to 100 (0 no effect, 100 complete control), read-out: Plant response rating, Waterhemp
[26] = post-emergence, Postemergence, scale 0 to 100 (0 no effect, 100 complete control), read-out: Foxtail, Giant plant response rating
[27] = post-emergence, Postemergence, scale 0 to 100, 0 no effect, 100 complete control, read-out: Plant response rating, Foxtail, Giant
[28] = pre-emergence, Preemergence, scale 0 to 100 (0 no effect, 100 complete control), read-out: Plant response rating, Foxtail, Giant

Fc1cccc(Oc2ncc(Br)cn2)c1-c1cc(C(F)F)no1 [Compound 145, 5-bromo-2-[2-[3-(difluoromethyl)-5-isoxazolyl]-3-fluorophenoxy]pyrimidine]
80%: pest or weed control at 31 g/ha ([3]; post-emergence, Postemergence, scale 0 to 100 (0 no effect, 100 complete control), read-out: Galium plant response rating) | pest or weed control at 62 g/ha [3, 15] | pest or weed control at 125 g/ha [4, 18] | pest or weed control at 125 g/ha ([9]; post-emergence, Postemergence, scale 0 to 100, 0 no effect, 100 complete control, read-out: Plant response rating, Morningglory)
0%: pest or weed control at 16 g/ha ([5]; pre-emergence, Preemergence, 16 g ai/ha, scale 0 to 100 (0 no effect, 100 complete control), read-out: Plant response rating, Nutsedge, Yellow) | pest or weed control at 31 g/ha [5, 21]
65%: pest or weed control at 16 g/ha [1, 12]
10%: pest or weed control at 62 g/ha [1, 11] | pest or weed control at 125 g/ha [5, 20] | pest or weed control at 31 g/ha [8, 26]
25%: pest or weed control at 62 g/ha [4, 18]
20%: pest or weed control at 31 g/ha [4, 17] | pest or weed control at 62 g/ha [8, 27] | pest or weed control at 125 g/ha [8, 27]
98%: pest or weed control at 62 g/ha [2, 13] | pest or weed control at 125 g/ha [2, 13] | pest or weed control at 31 g/ha [3, 16]
90%: pest or weed control at 125 g/ha [3, 15] | pest or weed control at 16 g/ha ([3]; pre-emergence, Preemergence, 16 g ai/ha, scale 0 to 100 (0 no effect, 100 complete control), read-out: Plant response rating, Galium) | pest or weed control at 31 g/ha [4, 19] | pest or weed control at 31 g/ha ([7]; post-emergence, Postemergence, scale 0 to 100 (0 no effect, 100 complete control), read-out: Waterhemp plant response rating)
85%: pest or weed control at 31 g/ha [1, 12] | pest or weed control at 62 g/ha [1, 12] | pest or weed control at 31 g/ha ([6]; post-emergence, Postemergence, scale 0 to 100 (0 no effect, 100 complete control), read-out: Lambsquarters plant response rating) | pest or weed control at 62 g/ha [6, 22] | pest or weed control at 16 g/ha [8, 28] | pest or weed control at 31 g/ha ([9]; post-emergence, Postemergence, 31 g ai/ha, scale 0 to 100 (0 no effect, 100 complete control), read-out: Morningglory plant response rating) | pest or weed control at 62 g/ha ([9]; post-emergence, Postemergence, 62 g ai/ha, scale 0 to 100, 0 no effect, 100 complete control, read-out: Plant response rating, Morningglory)
15%: pest or weed control at 16 g/ha [4, 17] | pest or weed control at 16 g/ha [4, 19] | pest or weed control at 16 g/ha ([9]; pre-emergence, Preemergence, 16 g ai/ha, scale 0 to 100 (0 no effect, 100 complete control), read-out: Plant response rating, Morningglory)
100%: pest or weed control at 125 g/ha ([1]; pre-emergence, Preemergence, read-out: Plant response rating (scale 0 to 100), Barnyardgrass) | pest or weed control at 125 g/ha ([2]; pre-emergence, Preemergence, read-out: Plant response rating (scale 0 to 100), Pigweed) | pest or weed control at 16 g/ha ([2]; pre-emergence, Preemergence, 16 g ai/ha, scale 0 to 100 (0 no effect, 100 complete control), read-out: Plant response rating, Pigweed) | pest or weed control at 31 g/ha [2, 14] | pest or weed control at 62 g/ha [2, 14] | pest or weed control at 125 g/ha ([3]; pre-emergence, Preemergence, read-out: Plant response rating (scale 0 to 100), Galium) | pest or weed control at 62 g/ha [3, 16] | pest or weed control at 125 g/ha ([6]; pre-emergence, Preemergence, read-out: Plant response rating (scale 0 to 100), Lambsquarters) | pest or weed control at 16 g/ha ([6]; pre-emergence, Preemergence, 16 g ai/ha, scale 0 to 100 (0 no effect, 100 complete control), read-out: Plant response rating, Lambsquarters) | pest or weed control at 31 g/ha [6, 23] | pest or weed control at 62 g/ha [6, 23] | pest or weed control at 62 g/ha [7, 24] | pest or weed control at 125 g/ha [7, 24] | pest or weed control at 125 g/ha ([7]; pre-emergence, Preemergence, read-out: Plant response rating (scale 0 to 100), Waterhemp) | pest or weed control at 16 g/ha ([7]; pre-emergence, Preemergence, 16 g ai/ha, scale 0 to 100 (0 no effect, 100 complete control), read-out: Plant response rating, Waterhemp) | pest or weed control at 31 g/ha [7, 25] | pest or weed control at 62 g/ha [7, 25] | pest or weed control at 125 g/ha ([8]; pre-emergence, Preemergence, read-out: Plant response rating (scale 0 to 100), Foxtail, Giant) | pest or weed control at 31 g/ha [8, 28] | pest or weed control at 62 g/ha [8, 28] | pest or weed control at 125 g/ha ([9]; pre-emergence, Preemergence, read-out: Plant response rating (scale 0 to 100), Morningglory)
95%: pest or weed control at 31 g/ha ([2]; post-emergence, Postemergence, scale 0 to 100 (0 no effect, 100 complete control), read-out: Pigweed plant response rating) | pest or weed control at 125 g/ha ([4]; pre-emergence, Preemergence, read-out: Plant response rating (scale 0 to 100), Blackgrass) | pest or weed control at 62 g/ha [4, 19] | pest or weed control at 125 g/ha [6, 22]
5%: pest or weed control at 16 g/ha [1, 10] | pest or weed control at 31 g/ha [1, 10] | pest or weed control at 31 g/ha ([5]; post-emergence, Postemergence, scale 0 to 100 (0 no effect, 100 complete control), read-out: Nutsedge, Yellow plant response rating) | pest or weed control at 62 g/ha [5, 20] | pest or weed control at 16 g/ha [8, 26]
30%: pest or weed control at 125 g/ha [1, 11] | pest or weed control at 62 g/ha [5, 21]
45%: pest or weed control at 125 g/ha ([5]; pre-emergence, Preemergence, read-out: Plant response rating (scale 0 to 100), Nutsedge, Yellow)
